Test results published in the supplement of paper PMC7287046.

Legend:
Settings in all cases: exposure time: 72 h
U118 [1] = assay: Loewe synergy score (Combenefit); higher = more synergy; extreme values may be limits of the assay
Experimental: (§1)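 The same 6x6 dose matrices of drug pairs on glioma cell lines (72 h, CellTiter-Glo viability normalised to DMSO, triplicate) were scored with Combenefit. The Loewe, Bliss and HSA synergy scores are given; paper thresholds are Loewe 7.8 and Bliss 2.5.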

SF268 [2] = assay: as above
Experimental: as §1

SF539 [3] = assay: as above
Experimental: as §1

U87 [4] = assay: as above
Experimental: as §1

U251 [5] = assay: as above
Experimental: as §1

KNS-42 [6] = assay: as above
Experimental: as §1

T98G [7] = assay: as above
Experimental: as §1

AM-38 [8] = assay: as above
Experimental: as §1

SNB75 [9] = assay: as above
Experimental: as §1

U118 [10] = assay: Bliss synergy score (Combenefit); higher = more synergy; extreme values may be limits of the assay
Experimental: as §1

SF268 [11] = assay: as above
Experimental: as §1

SF539 [12] = assay: as above
Experimental: as §1

U87 [13] = assay: as above
Experimental: as §1

U251 [14] = assay: as above
Experimental: as §1

KNS-42 [15] = assay: as above
Experimental: as §1

T98G [16] = assay: as above
Experimental: as §1

AM-38 [17] = assay: as above
Experimental: as §1

SNB75 [18] = assay: as above
Experimental: as §1

KNS42 = assay: Chou-Talalay combination index (dimensionless); higher = less synergy (more antagonism)
Experimental: (§2)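 Glioma cell lines were treated for 72 h with a 6x6 matrix of two drugs, each in twofold dilutions with the top dose at the single-drug IC50. Viability was read by CellTiter-Glo and normalised to DMSO controls, in triplicate. The Chou-Talalay combination index was computed by the median effect principle; CI < 0.8 means synergy.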

U118 [19] = assay: as above
Experimental: as §2

SF268 [20] = assay: as above
Experimental: as §2

SF539 [21] = assay: as above
Experimental: as §2

U87 [22] = assay: as above
Experimental: as §2

U251 [23] = assay: as above
Experimental: as §2

AM38 = assay: as above
Experimental: as §2

SNB75 [24] = assay: as above
Experimental: as §2

T98 = assay: as above
Experimental: as §2

U118 [25] = assay: HSA synergy score (Combenefit); higher = more synergy
Experimental: as §1

SF268 [26] = assay: as above
Experimental: as §1

SF539 [27] = assay: as above
Experimental: as §1

U87 [28] = assay: as above
Experimental: as §1

U251 [29] = assay: as above
Experimental: as §1

KNS-42 [30] = assay: as above
Experimental: as §1

T98G [31] = assay: as above
Experimental: as §1

AM-38 [32] = assay: as above
Experimental: as §1

SNB75 [33] = assay: as above
Experimental: as §1

Structure (SMILES) | Loewe synergy score (U118 [1]) | Loewe synergy score (SF268 [2]) | Loewe synergy score (SF539 [3]) | Loewe synergy score (U87 [4]) | Loewe synergy score (U251 [5]) | Loewe synergy score (KNS-42 [6]) | Loewe synergy score (T98G [7]) | Loewe synergy score (AM-38 [8]) | Loewe synergy score (SNB75 [9]) | Bliss synergy score (U118 [10]) | Bliss synergy score (SF268 [11]) | Bliss synergy score (SF539 [12]) | Bliss synergy score (U87 [13]) | Bliss synergy score (U251 [14]) | Bliss synergy score (KNS-42 [15]) | Bliss synergy score (T98G [16]) | Bliss synergy score (AM-38 [17]) | Bliss synergy score (SNB75 [18]) | Chou-Talalay combination index (KNS42) | Chou-Talalay combination index (U118 [19]) | Chou-Talalay combination index (SF268 [20]) | Chou-Talalay combination index (SF539 [21]) | Chou-Talalay combination index (U87 [22]) | Chou-Talalay combination index (U251 [23]) | Chou-Talalay combination index (AM38) | Chou-Talalay combination index (SNB75 [24]) | Chou-Talalay combination index (T98) | HSA synergy score (U118 [25]) | HSA synergy score (SF268 [26]) | HSA synergy score (SF539 [27]) | HSA synergy score (U87 [28]) | HSA synergy score (U251 [29]) | HSA synergy score (KNS-42 [30]) | HSA synergy score (T98G [31]) | HSA synergy score (AM-38 [32]) | HSA synergy score (SNB75 [33])
Nc1ccn([C@@H]2O[C@H](CO)[C@@H](O)C2(F)F)c(=O)n1 [Gemcitabine] + C[C@@H](Oc1cc(-c2cnn(C3CCNCC3)c2)cnc1N)c1c(Cl)ccc(F)c1Cl [Crizotinib] | 0.443 | 0.179 | 0 | 0.0421 | 2.98 | 0.0765 | 0 | 3.12 | 5.91 | 0.063 | 0.175 | 0.0351 | 0 | 0.679 | 0 | 0 | 0.116 | 4.81 | 0.783 | 0.987 | 0.954 | 0.801 | 1.25 | 0.752 | 0.719 | 0.899 | 1.03 | 0.488 | 1.93 | 2.44 | 0.0446 | 7.75 | 1.25 | 0 | 3.33 | 7.67
CC(=O)O[C@@]12CO[C@@H]1C[C@H](O)[C@@]1(C)C(=O)[C@H](O)C3=C(C)[C@@H](OC(=O)[C@H](O)[C@@H](NC(=O)OC(C)(C)C)c4ccccc4)C[C@@](O)([C@@H](OC(=O)c4ccccc4)[C@H]21)C3(C)C [Docetaxel] + CCC(=O)N1CCN(c2ccc(-n3c(=O)ccc4cnc5ccc(-c6cnc7ccccc7c6)cc5c43)cc2C(F)(F)F)CC1 [Torin1] | 1.75 | 6.57 | 2.76 | 20.6 | 5.9 | 10.2 | 8.3 | 3.28 | 1.3 | 0.102 | 2.06 | 0 | 14 | 0.704 | 0.0301 | 0.32 | 0 | 0.14 | 0.95 | 0.949 | 0.8 | 0.976 | 0.448 | 0.732 | 0.895 | 0.749 | 0.53 | 4.14 | 12.8 | 2.76 | 28.7 | 6.14 | 14.4 | 9.53 | 9.71 | 3.38
CO[C@H]1C[C@@H]2CC[C@@H](C)[C@@](O)(O2)C(=O)C(=O)N2CCCC[C@H]2C(=O)O[C@H]([C@H](C)C[C@@H]2CC[C@@H](O)[C@H](OC)C2)CC(=O)[C@H](C)/C=C(\C)[C@@H](O)[C@@H](OC)C(=O)[C@H](C)C[C@H](C)/C=C/C=C/C=C/1C [Rapamycin] + C=CCc1cccc(/C=N/NC(=O)CN2CCN(Cc3ccccc3)CC2)c1O [PAC-1] | 3.97 | 5.45 | 3.72 | 0 | 0.233 | 13.7 | 0 | 0.274 | 7.67 | 0 | 0 | 0.0748 | 0 | 0.334 | 5.47 | 0 | 0 | 0.0756 | 0.607 | 1.03 | 0.962 | 0.975 | 1.01 | 0.927 | 1.24 | 0.925 | 1.13 | 4.75 | 5.88 | 4.8 | 0.71 | 0.552 | 14.1 | 1.1 | 0.274 | 8.87
CC(=O)O[C@@]12CO[C@@H]1C[C@H](O)[C@@]1(C)C(=O)[C@H](O)C3=C(C)[C@@H](OC(=O)[C@H](O)[C@@H](NC(=O)OC(C)(C)C)c4ccccc4)C[C@@](O)([C@@H](OC(=O)c4ccccc4)[C@H]21)C3(C)C [Docetaxel] + CCCCCCCCCCCC1=C(O)C(=O)C=C(O)C1=O [Embelin] | 0.129 | 0 | 2.91 | 0.7 | 0.944 | 3.76 | 2.71 | 0.74 | 0.195 | 0.219 | 0.0571 | 0.24 | 0.7 | 3.66 | 3.74 | 0.71 | 0 | 0.144 | 0.349 | 0.982 | 1.01 | 0.835 | 0.827 | 0.659 | 1.08 | 0.849 | 0.911 | 0.358 | 1.82 | 3.01 | 0.7 | 9.62 | 6.6 | 2.71 | 1.16 | 3.76
CCCCCCCCCCCC1=C(O)C(=O)C=C(O)C1=O [Embelin] + N#CC(c1ccnc(NCCc2cccnc2)n1)c1nc2ccccc2s1 [AS601245] | 4.39 | 0.00767 | 0.787 | 0.927 | 1.11 | 2.73 | 6.59 | 0 | 0.557 | 2.98 | 1.91 | 0.103 | 9.51 | 1.11 | 7.8 | 6.12 | 0.346 | 0.833 | 0.78 | 0.639 | 0.923 | 0.84 | 0.0258 | 0.88 | 0.867 | 0.365 | 0.365 | 4.61 | 5.6 | 1.24 | 10.3 | 1.11 | 12.6 | 11.9 | 1.14 | 2.04
